Data from patent US8367727B2, “Method of using abscisic acid to treat diseases and disorders” (priority 2006, dated 2013).

Columns and labels:
[1] = tested on: colon inflammatory gene expression; assay: Colon gene expression by real-time quantitative PCR, DSS colitis; format: in vivo, mice
Source text: Complementary DNA (cDNA) concentrations for genes of interest were examined by real-time quantitative PCR using an iCycler IQ System and the iQ SYBR green supermix (Bio-Rad). A standard curve was generated for each gene using 10-fold dilutions of purified amplicons starting at 5 pg of cDNA and used later to calculate the starting amount of target cDNA in the unknown samples. SYBR green I is a general double-stranded DNA intercalating dye and may therefore detect nonspecific products and primer/dimers in addition to the amplicon of interest. In order to determine the number of products synthesized during the real-time PCR, a melting curve analysis was performed on each product. Real-time PCR was used to measure the starting amount of nucleic acid of each unknown sample of cDNA on the same 96-well plate. Results are presented as starting quantity of target cDNA (picograms) per microgram of total RNA.

[2] = tested on: PPAR γ and PPAR γ-responsive genes in WAT; assay: Quantitative real-time RT-PCR of white adipose tissue (WAT) of db/db mice; format: in vivo
Source text: Complementary DNA (cDNA) concentrations for β-actin, PPAR γ, PPAR α, PPAR δ, adiponectin, CD36, aP2, and TNF-α were examined by real-time quantitative PCR using and iCycler IQ System and the iQ SYBR green supermix (Bio-Rad). SYBR green I is a general double-stranded DNA intercalating dye and, therefore, may detect nonspecific products and primer/dimers in addition to the amplicon of interest. In order to determine the number of products produced during the real-time PCR, a melting curve analysis was performed on each product. Real-time PCR was used to measure the starting amount of nucleic acid of each unknown sample of cDNA on the same 96-well plate. Results are presented as starting quantity of cDNA (picograms) per microgram of mRNA.

[3] = tested on: MCP-1 promoter; assay: MCP-1 promoter luciferase reporter in 3T3-L1 pre-adipocytes; format: cell-based
Description: 3T3-L1 cells (American Type Culture Collection, Manassas, Va.) were grown in 24-well plates in DMEM high glucose medium (Invitrogen, Carlsbad, Calif.) containing 10% fetal bovine serum (FBS) until 60-70% confluence. Before transfection, the medium was changed to 1% FBS. The cells cultured in 24-well plates were co-transfected with 0.8 μg plasmid DNA and 1 ng of pRL reporter control plasmid per well using F-1 transfection reagents (Targeting Systems, Santee, Calif.) according to the manufacturer's protocol. Transfection efficiencies were determined by cotransfecting the cells with a pcDNA™ 3.1/His/lacZ control vector at 24 h. The transfected cells were then treated with either a racemic ABA mixture (12.5 μM; Sigma) or rosiglitazone (1 μM; Cayman Chemicals, Ann Arbor, Mich.) for 24 hours. Designated wells were also treated with the PPAR γ antagonist GW9662 (30 μM; Cayman Chemicals). Transfected cells were harvested in reporter lysis reagent. Luciferase activity, normalized to pRL activity in the cell extracts was determined by using the dual luciferase reporter assay system (Promega, Madison, Wis.) in a TD-20/20 Single-Tube Luminometer (Turner Biosystems, Sunnyvale, Calif.). Relative luciferase activity (RLA) was calculated as a ratio of the chemiluminescence 10 seconds after the Luciferase Assay Reagent II (Promega) was added over the chemiluminescence 10 seconds after the Stop&Glo Reagent (Promega).
To further examine the effect of ABA on MCP-1 transactivation, 3T3-L1 preadipocytes were transfected with a MCP-1 promoter luciferase reporter construct and also cotransfected with a pCMX PPAR γ expression plasmid to increase endogenous PPAR γ activity. Cells were then treated with ABA (12.5 μM), rosiglitazone (1 μM), the PPAR γ antagonist GW9662 (30 μM), or a combination of agonist and inhibitor.

[4] = tested on: dextran sodium sulfate (DSS)-induced colitis; assay: DSS-induced colitis in C57BL/6J mice: disease activity, macroscopic scores, histopathology; format: in vivo
Description: Six to eight week old C57BL/6J mice (n=20) and were housed at the animal facilities at Virginia Polytechnic Institute and State University in a room maintained at 75° F., with a 12:12 h light-dark cycle starting from 6:00 AM. All experimental procedures were approved by the Institutional Animal Care and Use Committee of Virginia Polytechnic Institute and State University and met or exceeded requirements of the Public Health Service/National Institutes of Health and the Animal Welfare Act. C57BL/6J mice were fed AIN-93G-based diets with or without 100 mg/kg of a racemic ABA mixture for 35 days prior to induction of colitis with water containing 2.5% dextran sodium sulfate (DSS), […] (ICN Biomedicals, Aurora, Ohio). After the DSS challenge mice were weighed on a daily basis and examined for clinical signs of disease associated with colitis (i.e., perianal soiling, rectal bleeding, diarrhea, and piloerection). For the DSS challenge, the disease activity indices and rectal bleeding scores were calculated using a modification of a previously published compounded clinical score (50). Briefly, the disease activity index consisted of a scoring for diarrhea and lethargy (0-3), whereas rectal bleeding consisted of a visual observation of blood in feces and the perianal area (0-4). Mice in the DSS study were euthanized on day 7 of the DSS challenge. On day 7 blood mice were euthanized by CO2 asphyxiation and blood was withdrawn from the heart. Spleen and mesenteric lymph nodes (MLN) were scored based on size and macroscopic inflammatory lesions (0-3), excised, and then crushed to produce single-cell suspensions for flow cytometry.
Colonic sections were fixed in 10% buffered neutral formalin, later embedded in paraffin, and then sectioned (5 μm) and stained with H&E stain for histologic examination. Colons were graded with a compounded histologic score including the extent of (1) lymphocyte infiltration, (2) mucosal thickening, and (3) epithelial cell erosion. The sections were graded with a score of 0-4 for each of the previous categories and data were analyzed as a normalized compounded score.

[5] = tested on: mesenteric lymph node-derived lymphocytes; assay: Proliferation and PGE2 production, mesenteric lymph node-derived lymphocytes; format: cell-based, mice
[6] = all studies conducted with ABA; cited from earlier work
[7] = tested on: CTLA-4 on CD4+ T cells; assay: CTLA-4 assessment in cultured CD3/CD28-stimulated splenocytes; format: cell-based, mice; settings: ABA 10 μM, 20 hr
Description: Splenocytes from wild-type mice (n=2) were isolated under sterile conditions and seeded into 96-well plates as described above. Cells were stimulated with anti-CD3 (5 μg/mL; BD Pharmingen) and anti-CD28 (1 μg/mL; BD Pharmingen) to induce proliferation and then treated with DMSO or ABA (10 μM, Sigma). Cells were then placed in a 37° C. incubator with 5% CO2 for 20 hours and immunophenotyped with anti-CD4 Alexa Fluor 700 (BD Pharmingen), anti-CD3-PE-Cy5 (BD Pharmingen), anti-CD8-PerCp-Cy5.5 (eBioscience), and'anti-CD152 (CTLA-4)-biotin (BD). Streptavidin PE-Texas Red (1 μg/mL; BD Pharmingen) was used as a secondary antibody. Flow results were computed with a BD LSR II flow cytometer and data analyses was performed with FACS Diva software (BD).

[8] = 100 mg ABA/kg diet, 36 days, P<0.01

CC1=CC(=O)CC(C)(C)C1(O)/C=C/C(C)=C\C(=O)O (racemic) [ABA, abscisic acid]
colonic expression of E-selectin ([1]; ABA-supplementation, DSS): significantly lowered | colonic expression of ICAM-1 ([1]; ABA-supplementation, DSS): no affect | colonic expression of MAdCAM-1 ([1]; ABA-supplementation, DSS): significantly lowered | colonic expression of PECAM-1 ([1]; ABA-supplementation, DSS): no affect | colonic expression of VCAM-1 ([1]; ABA-supplementation, DSS): significantly lowered | colonic IL-6 ([1]; ABA-treated mice): significantly attenuated levels | colonic MMP-9 ([1]; ABA-treated mice): significantly attenuated levels | colonic iNOS ([1]; ABA-treated mice): significantly attenuated levels | colonic PPAR γ, CD36 and FABP4 expression ([1]; colons of ABA-fed mice): Neither colonic PPAR γ nor its responsive genes CD36, or FABP4 were significantly affected | mRNA expression of PPAR α or PPAR δ ([2]; 100 mg ABA/kg diet, 36 days): no significant differences | WAT expression of CD36 mRNA [2, 8]: significant increase | WAT expression of PPAR γ mRNA [2, 8]: significant increase | WAT expression of aP2 mRNA ([2]; 100 mg ABA/kg diet, 36 days, P<0.02): significant increase | WAT expression of adiponectin mRNA ([2]; 100 mg ABA/kg diet, 36 days, P<0.05): significant increase | TNF-α mRNA expression in WAT ([2]; ABA-fed db/db mice, P<0.05): down-regulated | MCP-1 promoter activity ([3]; ABA 12.5 μM, rosiglitazone 1 μM, co-transfection with PPAR γ expression vector): significantly enhanced the ability of both ABA and rosiglitazone to inhibit MCP-1 promoter activity | effects on MCP-1 transactivation under cotreatment with antagonist ([3]; plus GW9662 30 μM): significantly inhibited by cotreatment with GW9662 | disease activity index (DAI) ([4]; 100 mg/kg diet 35 days, then 7 days 2.5% DSS): significantly reduced disease activity index | body weight loss ([4]; DSS challenge, ABA vs control): no significant differences in body weight loss | Epithelial erosion ([4]; colon histology, DSS colitis): significantly reduced | leukocyte infiltration ([4]; colon histology, DSS colitis): significantly reduced | mucosal thickening ([4]; colon histology, DSS colitis): significantly reduced | colonic inflammation, macroscopic score ([4]; day 7 of DSS): significantly reduced colonic inflammation | spleen or MLN macroscopic score ([4]; day 7 of DSS): no significant effect on the spleen or MLN | prostaglandin E2 (PGE2) production ([5]; ABA feeding): decreased | augmentation of proliferation of mesenteric lymph node-derived lymphocytes ([5]; following ABA feeding): 10 fold | side-effects [6]: no side-effects observed | CTLA-4 median fluorescence intensity (MFI) on CD4+ cells [7]: increased CTLA-4 MFI | percent of CD4+ T cells expressing CTLA-4 [7]: significantly increased
